Literature values as cited in patent US20240408053A1, “ENTERITIS-SUPPRESSING COMPOSITION” (KOBE GAKUIN EDUCATIONAL FOUNDATION, priority 2021, published 2024).

Details: blood metabolites after oral sesaminol in rats, for a short time (NPL 11); cited from earlier work

5″-methylated sesamin-6-catechol
antioxidant activity relative to that of sesaminol: approximately 1.6 times

sesaminol-6-catechol
antioxidant activity relative to that of sesaminol: approximately 1.6 times
